The results in this text go back to patent publication US20060046968A1, “Prodrug substituted benzoxazoles as estrogenic agents” (priority 2004, published 2006).

In experiment [1] the test system is Female Mongolian gerbils. Description: Transient global ischemia in the Mongolian gerbil: neurogranin mRNA in hippocampus. In kind it is in vivo. The conditions noted are these: gerbil hippocampus after 5 min global ischemia; s.c. daily. How it is done: Transient global ischemia in the Mongolian gerbil. The effect of test compounds on preventing or treating brain injury in response to oxygen deprivation/reperfusion were measured using the following test procedure.
Female Mongolian gerbils (60-80 g; Charles River Laboratories, Kingston, N.Y.) were housed in the Wyeth-Ayerst animal care facility Association for Assessment and Acreditation of Laboratory Animal Care (AAALAC) certified with a 12-hour light, 12-hour dark photoperiod and free access to tap water and a low-estrogen casein diet (Purina®; Richmond, Ind.). After acclimation (3-5 days), gerbils were anesthetized with isoflurane (2-3% mixture with O2), ovariectomized (Day 0). […] On Day 6, gerbils (n=4-5/group) were anesthetized with isoflurane, the common carotid arteries visualized via a mid-line neck incision and both arteries simultaneously occluded for 5 minutes with non-traumatic micro aneurysm clips. […]
The degree of neuronal protection was evaluated by in situ hybridization analysis of neurogranin mRNA. […]
Neurogranin mRNA was selected for these studies because it is highly expressed in the hippocampal neurons including CA1, but absent in glia and other cell types present in this brain region. […] The results from 6 sections (40 μm apart) per animal were averaged and statistically evaluated. […]

Experiment [2] relates to Lewis rats. Description: Lewis rat adjuvant-induced arthritis, treatment protocol: joint score (maximal score per day 12). Particulars: s.c. daily, begun Day 8 after adjuvant. In kind it is in vivo.

Take `C=Cc1cc(O)cc2nc(-c3ccc(O)c(F)c3)oc12` [Example 24, 2-(3-FLUORO-4-HYDROXYPH ENYL)-7-VI NYL-1,3-BENZOXAZOL-5-OL]: the “Neurogranin mRNA (mean ± stdev)” value in experiment [1] worked out at 0.0 arbitrary units. The Joint inflammation score in experiment [2] (table Day 1) came out at 11.33; in experiment [2] (table Day 2), 11.15; in experiment [2] (table Day 3), 11.33; in experiment [2] (table Day 4) it was 9.50; in experiment [2] (table Day 5), 8.00; in experiment [2] (table Day 6), 7.00. The Joint inflammation score in experiment [2] (table Day 7) worked out at 5.83; in experiment [2] (table Day 8) it was 4.83; in experiment [2] (table Day 9), 3.50; in experiment [2] (table Day 10), 3.83; in experiment [2] (table Day 11) it was 3.83; in experiment [2] (table Day 12), 3.83. The Joint inflammation score is listed as 3.16 in experiment [2] (table Day 13); 3.16 in experiment [2] (table Day 14); 2.83 in experiment [2] (table Day 15); 2.83 in experiment [2] (table Day 16); 2.00 in experiment [2] (table Day 17).
